According to article PMC8567988 (Frontiers in Microbiology, 2021):
Values joined by “and” are separate entries in the source; they are usually repeats but may differ in a detail not shown here. Equal entries are not always repeated. Where two headings read alike, the source gives them in different places.

Assays:
ASFV Ba71V strain [1] = assay type: cell-based, African swine fever virus
ASFV Ba71V strain [2] = system: ASFV Ba71V strain
ASFV Ba71V strain [3] = experiment: microbe, parasite or virus in culture; conditions: African swine fever virus, Vero, 72 h, read-out: inhibition of ASFV-induced CPE
ASFV = assay type: cell-based, African swine fever virus
in vitro = conditions: African green monkey
ASFV Ba71V strain [4] = experiment: microbe, parasite or virus in culture; assay type: cell-based, African swine fever virus
ASFV Ba71V strain [5] = experiment: microbe, parasite or virus in culture; assay type: cell-based, African swine fever virus; remark: listed apart in the source
ASFV Ba71V strain [6] = assay type: cell-based, African swine fever virus; remark: listed apart in the source
ASFV Ba71V [7] = assay type: cell-based, African swine fever virus
ASFV Ba71V [8] = assay type: cell-based, African swine fever virus; remark: listed apart in the source
ASFV Ba71V strain [9] = experiment: microbe, parasite or virus in culture; assay type: cell-based, African swine fever virus; remark: listed apart in the source
ASFV Ba71V [10] = assay type: cell-based, African swine fever virus; remark: listed apart in the source
ASFV protein (pA104R) = assay type: cell-based, African swine fever virus
ASFV Ba71V [11] = assay type: cell-based, African swine fever virus; remark: listed apart in the source
ASFV Arm/07 isolate [12] = assay type: cell-based, African swine fever virus
ASFV Arm/07 isolate [13] = assay type: cell-based, African swine fever virus; remark: listed apart in the source
ASFV Arm/07 isolate [14] = assay type: cell-based, African swine fever virus; remark: listed apart in the source
ASFV Arm/07 isolate [15] = assay type: cell-based, African swine fever virus; remark: listed apart in the source
[16] = system: autophagic vacuoles in Vero cells; assay type: cell-based, African green monkey
[17] = in vivo; cited from earlier work

Compound: O=c1cc(-c2ccccc2)oc2c1ccc1ccccc12 [7,8-benzoflavone]
- ASFV yield after virucidal pre-incubation (ASFV Ba71V strain [1]): 4.64±0.09 log TCID50/ml
- cell monolayer damage upon treatment (ASFV Ba71V strain [2]): no apparent cell monolayer damage
- inhibition at 10 µg/mL (ASFV Ba71V strain [3]): > 40%

Compound: Oc1c2ccccc2c2c3c(cccc13)N=N2 [SP600125, reference compound]
- effect of the inhibitor alone on ASFV infection (ASFV): only a slight effect on ASFV infection

Compound: COc1ccc(-c2coc3cc(O)ccc3c2=O)cc1O [calycosin]
- cell monolayer damage upon treatment (ASFV Ba71V strain [2]): no apparent cell monolayer damage
- inhibition at 20 µg/mL (ASFV Ba71V strain [3]): > 40%

Compound: COc1ccc(-c2cc(=O)c3c(O)cc(O[C@@H]4O[C@H](CO[C@@H]5O[C@@H](C)[C@H](O)[C@@H](O)[C@H]5O)[C@@H](O)[C@H](O)[C@H]4O)cc3o2)cc1O [diosmin]
- cell monolayer damage upon treatment (ASFV Ba71V strain [2]): no apparent cell monolayer damage
- CC50 (in vitro): 33.1 µg/mL and 54.4 µM
- inhibition at 10 µg/mL (ASFV Ba71V strain [3]): > 40%

Compound: COc1ccc(-c2cc(=O)c3c(OC)cc(OC)c(OC)c3o2)cc1OC [isosinensetin]
- cell monolayer damage upon treatment (ASFV Ba71V strain [2]): no apparent cell monolayer damage
- CC50 (in vitro): 24.8 µg/mL and 66.6 µM
- viability (in vitro): 58.5%
- inhibition at 20 µg/mL (ASFV Ba71V strain [3]): > 40%

Compound: O=c1c(O)c(-c2ccc(O)cc2)oc2cc(O)cc(O)c12 [kaempferol, 3,5,7-trihydroxy-2-(4-hydroxyphenyl)-4H-chromen-4-one]
- viral yield (ASFV Ba71V strain [4]): 3.98±0.19 log TCID50/ml
- inhibition at 20 µg/mL (ASFV Ba71V strain [4]; African swine fever virus, Vero, 24 h, read-out: inhibition of ASFV infection): > 92%
- virucidal effect (ASFV Ba71V strain [1]): no virucidal effects
- antiviral effect, log decrease of ASFV titer (ASFV Ba71V strain [5]): 1.26 log
- IC50 (ASFV Ba71V strain [5]; African swine fever virus, Vero): 2.2 µg/mL and 7.7 µM
- inhibition, log decrease of ASFV titer (ASFV Ba71V strain [6]): 1.21 log
- viral titers as the interval between infection and removal increased (ASFV Ba71V [7]): gradual declines in viral titers
- inhibitory effect on ASFV infection (ASFV Ba71V [8]): no significant inhibitory effect
- suppression of viral infection (ASFV Ba71V [8]): more than 90%
- viral titer reduction (ASFV Ba71V [8]): 1.25 log and 1.1 log
- inhibition of the ASFV yield (ASFV Ba71V strain [9]): more than 60%
- viral titer, attachment experiment (ASFV Ba71V strain [9]): 3.97±0.25 log TCID50/ml
- virus titer, internalization experiment (ASFV Ba71V strain [9]): 3.63±0.11 log TCID50/ml
- inhibition at 20 µg/mL (ASFV Ba71V strain [9]; African swine fever virus, Vero, read-out: inhibition of the ASFV yield, attachment experiment): ~60%
- plaque numbers (virus spread) (ASFV Ba71V [10]): significant reduction in plaque numbers in a dose-dependent manner
- viral protein synthesis (late protein pA104R) (ASFV protein (pA104R)): viral protein synthesis was reduced
- decrease of viral DNA in viral factories vs untreated control (ASFV Ba71V [11]): 31%
- anti-ASFV activity (ASFV Arm/07 isolate [12]): Anti-ASFV activity was observed
- viral titer (ASFV Arm/07 isolate [12]): 3.4±0.14 log HADU50/ml
- inhibition, log decrease of titer (ASFV Arm/07 isolate [13]): about 2 log
- effect on ASFV entry (ASFV Arm/07 isolate [14]): could hinder the ASFV attachment and internalization processes
- decrease in the amount of viral DNA in ASFV factories (ASFV Arm/07 isolate [15]): 39%
- formation of autophagic vacuoles [16]: induced the formation of autophagic vacuoles
- antiviral activity in the presence of autophagy inhibitor SP600125 (ASFV): partially abrogated
- cell monolayer damage upon treatment (ASFV Ba71V strain [2]): no apparent cell monolayer damage
- cytotoxicity for porcine cells (porcine macrophages): not cytotoxic
- human plasma concentration [17]: around 58 nm
- inhibition at 20 µg/mL (ASFV Ba71V strain [3]): > 40%

Compound: COc1c2occc2c(OC)c2c(=O)cc(C)oc12 [khellin]
- cell monolayer damage upon treatment (ASFV Ba71V strain [2]): no apparent cell monolayer damage
- inhibition at 10 µg/mL (ASFV Ba71V strain [3]): > 40%

Compound: Oc1ccc2c(c1)OC[C@H]1c3cc4c(cc3O[C@@H]21)OCO4 [maackiain]
- cell monolayer damage upon treatment (ASFV Ba71V strain [2]): no apparent cell monolayer damage
- inhibition at 20 µg/mL (ASFV Ba71V strain [3]): > 40%

Compound: COc1cc(O)c2c(c1)O[C@H](c1ccc(O)cc1)CC2=O [sakuranetin]
- cell monolayer damage upon treatment (ASFV Ba71V strain [2]): no apparent cell monolayer damage
- inhibition at 20 µg/mL (ASFV Ba71V strain [3]): > 40%

Compound: COc1ccc(-c2cc(=O)c3c(OC)c(OC)c(OC)cc3o2)cc1OC [sinensetin]
- cell monolayer damage upon treatment (ASFV Ba71V strain [2]): no apparent cell monolayer damage
- CC50 (in vitro): 150 µg/mL and 404 µM
- inhibition at 20 µg/mL (ASFV Ba71V strain [3]): > 40%
